Results on one compound are retold here after ChEMBL document CHEMBL5029165, “Derivatives of montanine-type alkaloids and their implication for the treatment of Alzheimer's disease: Synthesis, biological activity and in silico study” (Bioorg Med Chem Lett, 2021).

The target in assay [1] is T1, Acetylcholinesterase (Homo sapiens, UniProt P22303). Briefly: Inhibition of human AChE at 100 uM using acetylthiocholine as substrate by Ellman's method.
Assay [2] has as its target T1, Acetylcholinesterase. As to the kind of experiment: Inhibition of human AChE using acetylthiocholine as substrate by Ellman's method.
A short description of assay [3]: Selectivity index, ratio of IC50 for human BuChe to IC50 for human AChE.
Assay [4] deals with T2, Cholinesterase (Homo sapiens, UniProt P06276). As to the kind of experiment: Inhibition of human BuChE at 100 uM using butyrylthiocholine chloride as substrate by Ellman's method. On the technique in general: DTNB colorimetry detects thiols as they appear.
T2 sequence (P06276 whole entry): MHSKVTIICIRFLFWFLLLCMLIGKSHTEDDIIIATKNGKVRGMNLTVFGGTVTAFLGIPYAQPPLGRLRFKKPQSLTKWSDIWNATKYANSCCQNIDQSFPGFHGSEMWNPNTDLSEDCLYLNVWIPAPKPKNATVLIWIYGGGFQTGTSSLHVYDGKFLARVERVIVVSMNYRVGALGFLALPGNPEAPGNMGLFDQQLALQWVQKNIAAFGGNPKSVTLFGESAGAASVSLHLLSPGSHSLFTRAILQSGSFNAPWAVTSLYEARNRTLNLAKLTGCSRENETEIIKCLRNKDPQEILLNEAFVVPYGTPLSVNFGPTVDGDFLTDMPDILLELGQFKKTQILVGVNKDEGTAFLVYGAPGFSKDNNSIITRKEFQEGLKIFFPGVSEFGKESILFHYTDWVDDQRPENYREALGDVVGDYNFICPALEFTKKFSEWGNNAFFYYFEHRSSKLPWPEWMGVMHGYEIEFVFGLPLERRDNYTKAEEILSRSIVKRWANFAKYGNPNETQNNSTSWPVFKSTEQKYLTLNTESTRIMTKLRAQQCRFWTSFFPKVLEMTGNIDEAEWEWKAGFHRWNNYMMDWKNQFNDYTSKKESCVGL
Assay [5] has as its target T2, Cholinesterase. Briefly: Inhibition of human BuChE using butyrylthiocholine chloride as substrate by Ellman's method.
The nature of assay [6]: Selectivity index, ratio of IC50 for human AChE to IC50 for human BuChe.

The term inhibition denotes the drop in the measured response relative to a control, in per cent. In general, IC50 refers to the concentration that inhibits the measured activity by half. Higher therefore signals weaker potency.

T1 sequence (P22303 whole entry): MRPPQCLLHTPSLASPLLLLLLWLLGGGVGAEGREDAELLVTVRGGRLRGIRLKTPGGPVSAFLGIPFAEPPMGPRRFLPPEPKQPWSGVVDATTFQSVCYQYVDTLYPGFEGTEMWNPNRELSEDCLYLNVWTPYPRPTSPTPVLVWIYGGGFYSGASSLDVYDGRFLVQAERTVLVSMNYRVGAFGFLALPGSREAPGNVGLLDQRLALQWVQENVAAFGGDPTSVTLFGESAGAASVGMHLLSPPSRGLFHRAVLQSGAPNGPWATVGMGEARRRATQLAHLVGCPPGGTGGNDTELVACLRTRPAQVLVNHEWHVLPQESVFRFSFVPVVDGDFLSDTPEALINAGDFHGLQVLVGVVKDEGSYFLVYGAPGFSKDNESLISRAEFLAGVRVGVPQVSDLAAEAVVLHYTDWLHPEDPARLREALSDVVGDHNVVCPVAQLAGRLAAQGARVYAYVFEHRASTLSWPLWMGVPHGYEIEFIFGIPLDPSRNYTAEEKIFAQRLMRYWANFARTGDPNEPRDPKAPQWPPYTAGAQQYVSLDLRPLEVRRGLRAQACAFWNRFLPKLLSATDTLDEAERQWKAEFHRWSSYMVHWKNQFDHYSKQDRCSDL

Consider `CO[C@H]1C[C@H]2C(=C[C@@H]1OC(=O)c1cc([N+](=O)[O-])cc([N+](=O)[O-])c1)[C@H]1CN2Cc2cc3c(cc21)OCO3`, for which the inhibition on Acetylcholinesterase [1] amounted to 70.8%; against Cholinesterase [4], 19.2%. The values for the IC50 on Acetylcholinesterase [2] and against Cholinesterase [5] were 13.1 µM and over 100 µM, respectively. Besides, the Selectivity Index in assay [3] is over 7.66; in assay [6], under 0.13.
